From patent US20260216174A1, “TREATMENT OF ER+ BREAST CANCER COMPRISING HOMOLOGOUS RECOMBINATION DEFICIENCY USING PARG INHIBITOR” (IDEAYA BIOSCIENCES, INC., priority 2023, published 2026)

System: HCC1428 tumors
Test: Cell line derived xenograft (CDX) study with HCC1428 tumors
Format: in vivo, BALB/c nude mice
Conditions: 45 mg/kg QD p.o.; for TGI value: versus vehicle group
Experimental: For this xenograft, supplemental estradiol benzoate injections (40 μg/20 μl/mouse) are administered subcutaneously twice a week to BALB/c nude mice, starting one week prior to cell implantation and continuing through to the end of study. After implantation, HCC1428 tumor were allocated to treatment arms once a median tumor volume of about 181 mm^3 was reached. In Table 3A the abbreviation “p.o.” refers to oral administration and the abbreviation “QD×28” refers to administration once a day for 28 days.
Tumors were measured and mice were weighed twice a week during the experimental period. The tumor volume (mm3) was estimated using the formula: TV=a×b2/2, where “a” and “b” were the long and the short diameter of a tumor, respectively. The Tumor volumes were used to calculate tumor growth inhibition (TGI, an indicator of antitumor activity) using the formula: TGI %: (1−{T/T0/Ct/C0}/1−{C0/Ct})×100 where Tt=median tumor volume of treated at time t, T0=median tumor volume of treated at time 0, Ct=median tumor volume of control at time t and C0=median tumor volume of control at time 0.
For this xenograft, supplemental estradiol benzoate injections (40 μg/20 μl/mouse) are administered subcutaneously twice a week to BALB/c nude mice, starting one week prior to cell implantation and continuing through to the end of study. After implantation, HCC1428 tumor were allocated to treatment arms once a median tumor volume of about 181 mm^3 was reached. In Table 4A the abbreviation “p.o.” refers to oral administration and the abbreviation “QD×28” refers to administration once a day for 28 days.
Tumors were measured and mice were weighed twice a week during the experimental period. The tumor volume (mm^3) was estimated using the formula: TV=a×b2/2, where “a” and “b” were the long and the short diameter of a tumor, respectively. The Tumor volumes were used to calculate tumor growth inhibition (TGI, an indicator of antitumor activity) using the formula: TGI %: (1−{T/T0/Ct/C0}/1−{C0/Ct})×100 where Tt=median tumor volume of treated at time t, T0=median tumor volume of treated at time 0, Ct=median tumor volume of control at time t and C0=median tumor volume of control at time 0. […] At 100 mg/kg QD the mean tumor volume achieved was 116 mm3, on Day 71. The tumor growth inhibition (TGI) of these treatments compared with vehicle group on Day 28 or 71 of the treatment is summarized in Table 4B (See FIG. 3).

In the case of `NC(=O)c1cccc2cn(-c3ccc([C@@H]4CCCNC4)cc3)nc12` [niraparib, reference compound], the mean tumor volume (Compound A study) is reported as 230 mm^3, the TGI value (Compound A study) is reported as 75.2% and the mean tumor volume (Compound B study) is reported as 230 mm^3. The TGI value (Compound B study) was 75.2%.
